Consider five compounds from US4957920A, “Benzimidazoles, and pharmaceutical preparations containing these compounds” (priority 1987, dated 1990).

Like-named read-outs stand apart in the source and are kept apart here.

The target in data set [1] is T1, phosphodiesterase type III obtained from ox heart (Bos taurus, UniProt A0A3Q1M1E8).
T1 sequence (A0A3Q1M1E8 1-1126): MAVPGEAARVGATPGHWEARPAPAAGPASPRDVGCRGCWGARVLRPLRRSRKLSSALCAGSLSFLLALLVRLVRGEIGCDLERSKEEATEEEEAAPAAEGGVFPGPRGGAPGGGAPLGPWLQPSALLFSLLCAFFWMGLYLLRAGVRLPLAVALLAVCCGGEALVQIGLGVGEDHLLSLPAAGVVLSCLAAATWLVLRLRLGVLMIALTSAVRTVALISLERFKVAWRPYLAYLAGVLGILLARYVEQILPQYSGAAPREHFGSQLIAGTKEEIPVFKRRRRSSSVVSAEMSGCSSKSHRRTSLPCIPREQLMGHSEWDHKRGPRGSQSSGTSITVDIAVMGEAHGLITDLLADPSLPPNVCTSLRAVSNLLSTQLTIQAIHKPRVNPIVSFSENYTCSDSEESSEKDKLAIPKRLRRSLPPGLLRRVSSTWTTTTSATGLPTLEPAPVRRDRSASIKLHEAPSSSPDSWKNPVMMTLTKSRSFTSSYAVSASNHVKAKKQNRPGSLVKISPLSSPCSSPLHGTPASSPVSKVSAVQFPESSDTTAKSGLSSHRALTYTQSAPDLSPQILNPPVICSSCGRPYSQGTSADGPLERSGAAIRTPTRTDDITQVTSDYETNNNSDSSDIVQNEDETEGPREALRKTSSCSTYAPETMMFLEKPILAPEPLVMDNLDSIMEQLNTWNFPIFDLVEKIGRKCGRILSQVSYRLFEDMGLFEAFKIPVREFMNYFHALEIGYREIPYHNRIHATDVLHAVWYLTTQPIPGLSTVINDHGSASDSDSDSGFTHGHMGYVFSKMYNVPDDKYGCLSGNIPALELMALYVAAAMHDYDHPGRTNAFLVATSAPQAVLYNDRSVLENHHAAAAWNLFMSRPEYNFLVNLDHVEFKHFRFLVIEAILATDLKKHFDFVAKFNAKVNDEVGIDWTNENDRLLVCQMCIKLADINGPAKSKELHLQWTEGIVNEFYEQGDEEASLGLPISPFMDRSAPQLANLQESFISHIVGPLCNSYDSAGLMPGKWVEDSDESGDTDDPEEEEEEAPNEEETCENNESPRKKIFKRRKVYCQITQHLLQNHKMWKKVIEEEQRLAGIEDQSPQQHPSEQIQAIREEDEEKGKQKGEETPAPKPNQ
In words: Inhibition of phosphodiesterase type III, Method A (Diederen and Weisenberger). In kind it is biochemical. Conditions: read-out: percentage inhibition of FDE-III activity; for inhibition at 10 µM: 10^-5 mol/l; for inhibition at 1 µM: 10^-6 mol/l; for inhibition at 0.1 µM: 10^-7 mol/l. Here is the method: (§1) The inhibitory action of the compounds according to the invention on phosphodiesterase was tested on phosphodiesterase type III obtained from ox heart (Sigma Chemie, BRD) by the methods of W. Diederen and H. Weisenberger (Arzneim.-Forschumg 31, 177 (1981)) (Method A) and of M. A. Appleman and W. L. Terasaki (Advances in Cyclic Nucleotide Research, volume 5, Raven Press, New York (1975), page 153) (Method B).

In data set [2] the target is T1, phosphodiesterase type III obtained from ox heart. In words: Inhibition of phosphodiesterase type III, Method B (Appleman and Terasaki). It counts as biochemical. The following applies: read-out: percentage inhibition of FDE-III activity; for inhibition at 100 µM: 10^-4 mol/l; for inhibition at 10 µM: 10^-5 mol/l; for inhibition at 1 µM: 10^-6 mol/l. Here is the method: as §1

The subject of data set [3] is isolated, perfused guinea pig hearts. In words: Haemodynamic effects on isolated, perfused Langendorff hearts (guinea pigs). Conditions: Cavia porcellus. An excerpt:
(§2) The benzimidazoles according to the invention corresponding to the general formula I combine good oral availability with interesting pharmacological properties, especially cardiovascular effects, in particular positive inotropic and blood pressure lowering effects. They show an excellent cardiotonic activity in numerous pharmacological standard models, for example in vitro in the isolated, perfused Langendorff heart or in vivo on narcotised guinea pigs, where they produce a marked increase in contractility.
1. Investigations on isolated, perfused Langendorff Hearts (guinea pigs)
The arrangement of Langendorff was modified according to P. R. Beckett (J. Pharm. Pharmacol. 22, 818 (1970)) and R. M. Abel and R. L. Reis (Circ. Res. 27, 961 (1970)) to determine the haemodynamic effects of the compounds according to the invention on isolated, perfused guinea pig hearts. The spontaneously beating guinea pig hearts were catheterised in the left ventricle and perfused with solutions of the test substances in physiological saline solution/ethanol (9:1) at concentrations of 10^-4 to 10^-8 mol/1 at a constant perfusion pressure of 60 mm Hg.

For a further data set, the system named is narcotised guinea pigs. Nature of the data set: Haemodynamic characterisation on narcotised guinea pigs (in vivo model). Details: species or system guinea pig. Conditions: 10 μg/kg/min, infused through left jugular vein, under β-blockage (metoprolol 2 mg/kg i.m.).
Excerpt: as §2
2. Haemodynamic Characterisation on Narcotised Guinea Pigs (in vivo model)
The animals were narcotised with urethane (1.5 g/kg). The trachea was cannulated for volume controlled respiration. The two carotid arteries were then exposed operatively. A Tip catheter (3F) was introduced through the right carotid artery and moved forwards through the ascending aorta into the left ventricle while the pressure was continuously recorded. Successful passage through the aortic valves is recognised by the typical left ventricular pressure curve. A thermistor probe (3F, F. Edwards) is pushed forwards into the aortic arch through the left carotid for thermodilution. The thermistor probe also has a lumen for the recording of arterial blood pressure. A catheter is passed through the right jugular vein to be placed in front of the right auricle for application of the cold injectate (0.2 ml of 0.9% NaCl, 15° C.). The ECG is recorded in the first shunt. All substances are dissolved in physiological saline solution and infused through the left jugular vein (infusion volume 0 02 ml/min). The drug is applied after haemodynamic stabilisation and under β-blockage (metoprolol 2 mg/kg i.m.). All circulatory parameters are continuously registered on a direct recorder. The pulse frequency is calculated from the ECG, the contractility (dp/dt) is calculated from the […] and the volumetric cardiac output per unit time is calculated from the thermodilution curve.

The conditions of data set [4]: cited from earlier work.
Data set [5] concerns phosphodiesterase type III. Conditions: heart muscle cells; cited from earlier work.
The mark [6] stands for this setting: concentration range 10^-7 - 10^-5 mol/l, read-out: Maximum percentage changes compared with controls: Cardiac Frequency.
[7] abbreviates: concentration range 10^-7 - 10^-5 mol/l, read-out: Maximum percentage changes compared with controls: Contractility dp/dt.
Setting [8] is: concentration range 10^-7 - 10^-5 mol/l, read-out: Maximum percentage changes compared with controls: Coronary Flow.
Setting [9] is: due to the mechanisms of their action.

In general, inhibition refers to the drop in the measured response relative to a control, in per cent. Consider `CC1CC(=O)NN=C1c1ccc2[nH]c(CCCN)nc2c1` (centres unmarked) [Example 1], for which the inhibition at 100 µM in data set [1] (10^-4 mol/l) was 10%; in data set [2], 4%. Further, the inhibition at 10 µM in data set [1] was found to be 7%; in data set [2] it was 0%. Further, the inhibition at 1 µM in data set [1] and in data set [2] was 0% throughout. In addition, the inhibition at 0.1 µM in data set [1] and in data set [2] (10^-7 mol/l) was 0% in each case. In addition, the Emax was determined as 11% in data set [3] (concentration range 10^-8 - 10^-4 mol/l, read-out: Maximum percentage changes compared with controls: Cardiac Frequency); 76% in data set [3] (concentration range 10^-8 - 10^-4 mol/l, read-out: Maximum percentage changes compared with controls: Contractility dp/dt); 25% in data set [3] (concentration range 10^-8 - 10^-4 mol/l, read-out: Maximum percentage changes compared with controls: Coronary Flow). In addition, the “Maximum percentage changes compared with initial values: Blood Pressure sys.” value (“Maximum percentage changes … Blood Pressure sys.” for short) in the data set with narcotised guinea pigs is -25%. Moreover, the “Maximum percentage changes compared with initial values: Cardiac Frequency” value (“Maximum percentage changes … Cardiac Frequency” for short) with narcotised guinea pigs is given as “+20%”. For the same compound, the “Maximum percentage changes compared with initial values: Contractility dp/dt” value (shortened to “Maximum percentage changes … Contractility dp/dt”) in the data set with narcotised guinea pigs is listed as “+38%”.
As for `CC1CC(=O)NN=C1c1ccc2[nH]c(CCCNC(=N)NCCCc3c[nH]cn3)nc2c1` (centres unmarked) [Example 6], in data set [3] (setting [6]), the Emax came to 20%. Further, the Emax in data set [3] (setting [7]) turned out to be 161%. The Emax in data set [3] (setting [8]) is 52%. For the same compound, in the data set with narcotised guinea pigs, the “Maximum percentage changes … Blood Pressure sys.” value is recorded as -15%, the “Maximum percentage changes … Cardiac Frequency” value is on record as “+17%” and the “Maximum percentage changes … Contractility dp/dt” value is given as “+97%”.
With `COc1ccc(-c2nc3ccc(C4=NNC(=O)CC4C)cc3[nH]2)cc1` (centres unmarked) [Pimobendane, reference compound], in data set [4] (in vivo), the undesirable side effects entry is “undesirable side effects due to the mechanisms of their action, such as thrombocytopaenia or gastrointestinal disturbances”. In data set [1], the inhibition at 10 µM is 30%, the inhibition at 1 µM was 15% and the inhibition at 0.1 µM is 7%. For the same compound, in data set [2], the inhibition at 100 µM stood at 57%, the inhibition at 10 µM amounted to 19% and the inhibition at 1 µM was determined as 5%. For the same compound, the “positive inotropic effect by inhibiting phosphodiesterases, in particular type III” value in data set [5] is “positive inotropic effect”. For the same compound, the Emax in data set [3] (setting [6]) was 8%. In addition, the Emax in data set [3] (setting [7]) was 99%. Also, the Emax in data set [3] (setting [8]) was determined as 76%. In addition, in the data set on narcotised guinea pigs, the “Maximum percentage changes … Blood Pressure sys.” value is reported as -51%, the “Maximum percentage changes … Cardiac Frequency” value is listed as “+3%” and the “Maximum percentage changes … Contractility dp/dt” value was “+10%”.
As for `Nc1cc(-c2ccncc2)c[nH]c1=O` [amrinone], the undesirable side effects result in data set [4] (setting [9]) was “undesirable side effects due to the mechanisms of their action, such as thrombocytopaenia or gastrointestinal disturbances”. The “positive inotropic effect by inhibiting phosphodiesterases, in particular type III” value in data set [5] is on record as “positive inotropic effect”.
Take `Cc1[nH]c(=O)c(C#N)cc1-c1ccncc1` [milrinone]: the undesirable side effects result in data set [4] (setting [9]) is given as “undesirable side effects due to the mechanisms of their action, such as thrombocytopaenia or gastrointestinal disturbances”. Also, the “positive inotropic effect by inhibiting phosphodiesterases, in particular type III” value in data set [5] is listed as “positive inotropic effect”.
